According to US20140357655A1, “SPIROINDOLINE DERIVATIVES AS GONADOTROPIN- RELEASING HORMONE RECEPTOR ANTAGONISTS” (Bayer Intellectual Property GmbH, priority 2012, published 2014):
Where two headings read alike, the source gives them in different places. Square brackets hold non-standard residues; d marks the D form. Peptide text beside a SMILES is read from it. dPhe(4-Cl) = N[C@H](Cc1ccc(Cl)cc1)C(=O)O; d2Nal = N[C@H](Cc1ccc2ccccc2c1)C(=O)O; dCit = NC(=O)NCCC[C@@H](N)C(=O)O; d3Pal = N[C@H](Cc1cccnc1)C(=O)O

Assays:
human GnRHR = target: T1, human GnRHR (Homo sapiens, UniProt P30968); assay: Tag-Lite receptor binding assay; details: Hek293 cells transiently transfected with human GnRHR; green-labelled GnRHR binding peptide; read-out: Potency in receptor binding assay using TAG-LITE technology, given as IC50
T1 construct: host or cells: HEK293 (transient transfection), purchased as frozen labelled cells
T1 sequence (P30968 1-328): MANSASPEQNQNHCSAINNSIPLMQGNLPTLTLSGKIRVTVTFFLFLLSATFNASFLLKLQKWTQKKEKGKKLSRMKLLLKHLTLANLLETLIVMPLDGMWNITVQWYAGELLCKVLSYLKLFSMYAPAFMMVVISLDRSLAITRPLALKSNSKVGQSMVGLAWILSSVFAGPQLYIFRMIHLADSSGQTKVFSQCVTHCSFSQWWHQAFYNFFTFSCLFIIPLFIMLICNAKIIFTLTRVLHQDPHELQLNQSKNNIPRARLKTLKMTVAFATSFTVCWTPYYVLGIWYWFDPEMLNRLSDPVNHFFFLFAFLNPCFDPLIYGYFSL
Description: This binding assay is based on the fluorescence resonance energy transfer between fluorescence donor labelled human GnRHR and a green-labelled GnRHR binding peptide. Compounds interfering with the ligand binding side of the human GnRHR will replace the labelled peptide resulting in a signal decrease. The assay principle was established by Cisbio Bioassays (Bagnols-sur-Cèze Cedex, France) and further details are available on their homepage.
The assay procedure was further optimized for use in-house with reduced assay volumes. Frozen Hek293 cells, transiently transfected with human GnRHR and Terbium-labelling of the receptor, were supplied by Cisbio Bioassays as well as Tag-Lite buffer and green-labelled GnRHR binding peptide. Cells were thawed and transferred to cold Tag-Lite buffer. A volume of 8 μl of this cell suspension were added to 100 nl of a 160-fold concentrated solution of the test compound in DMSO pre-dispensed in a well of a white low-volume 384-well microtiter plate (Greiner Bio-One, Frickenhausen, Germany). The mixture was incubated for 5 min at room temperature. In the next step either 4 μl Tag-Lite buffer or as control 4 μl of an exceeding amount unlabelled binding peptide in Tag-Lite buffer were transferred to the mixture. The green-labelled GnRHR binding peptide was added in a final step at EC50 in a volume of 4 μl Tag-Lite buffer. After an incubation of 1 h at room temperature plates were measured in a microplate reader, e.g. a PHERAstar (BMG Labtechnologies, Offenburg, Germany) by using a specific optic module.
A ratio from the fluorescence emissions at 520 nm (green fluorescence) and at 490 nm (background signal of Terbium-labelled GnRHR) was calculated and the data were normalized (reaction without test compound=0% inhibition of binding of green-labelled peptide; reaction without test compound with exceeding amount unlabelled binding peptide=100% inhibition of binding of green-labelled peptide). On the same microtiter plate, compounds were tested at 10 different concentrations in the range of 12.5 μM to 0.64 nM (12.5 μM, 4.2 μM, 1.4 μM, 0.46 μM, 0.15 μM, 51 nM, 17 nM, 5.7 nM, 1.9 nM and 0.64 nM; dilution series prepared before the assay at the level of the 160-fold conc. stock solutions by serial 1:3 dilutions in 100% DMSO) in duplicate values for each concentration. By using an in-house software, the IC50 values were calculated by a 4 parameter fit.

human GnRH receptor = target: T2, human GnRH receptor (Homo sapiens, UniProt P30968); assay: IP-One HTRF assay with buserelin (at EC80) stimulation; type: cell-based; details: CHO cells stably expressing human GnRH receptor, read-out: Potency in IP-One HTRF assay, given as IC50
T2 sequence (P30968 1-328): T1 sequence (P30968 1-328)
Summary of the method: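 CHO cells stably expressing human GnRH receptor, preincubated 1 h at 37° C with IP1-d2, were exposed to compound and buserelin at EC80 for 1 h at 37° C. After lysis with Tb-anti-IP1 antibody (1 h, 22° C), 665/620 nm HTRF ratio read; 10 concentrations, 20 μM–1 nM, duplicates, 4-parameter IC50.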

serum LH = assay: LH suppression in the ovariectomized rat; type: in vivo; details: ovariectomized rats; for LH suppression: at 6 hours
Description: The in vivo potency of GnRH antagonists can be quantified by a LH suppression test in ovariectomized rats. GnRH triggers the LH release from the pituitary mediated by GnRH receptors. Ovarectomy of adult female rats results in elevated levels of circulating LH due to a lack of negative feedback by gonadal steroids. GnRH antagonists suppress the release of LH and accordingly suppression of LH levels can be used to quantify the in vivo potency of GnRH antagonists.
(§1) Female adult rats were ovariectomized surgically and they were allowed to recover for at least one week. The animals received 1 mg/kg, 10 mg/kg or 30 mg/kg of Example 14.1 by single per oral administration. For comparison reasons a vehicle control and a positive control, 0.1 mg/kg cetrorelix i.p., were given once. At 0 min, 15 min, 30 min, 1 hour, 2 hours, 6 hours and 24 hours after compound administration blood was taken from the retro orbital plexus (n=6 per blood withdrawal) for the measurement of serum LH and serum compound levels.

[1] = Serum compound levels in ovariectomized rats; type: in vivo; details: female, rat, read-out: serum compound level
Experimental: as §1

Structure (SMILES) | IC50 (human GnRHR) | IC50 (human GnRH receptor) | other results
O=C(Nc1ccccc1Cl)c1ccc2c(c1)C1(CCS(=O)(=O)CC1)C(C1CC1)N2S(=O)(=O)c1ccc(F)cc1 (stereo not shown) [Example 67, N-(2-chlorophenyl)-2-cyclopropyl-1-[(4-fluorophenyl)sulfonyl]-1,2,2′,3′,5′,6′-hexahydrospiro[indole-3,4′-thiopyran]-5-carboxamide 1′,1′-dioxide] | 154 nM | 113 nM | 
O=C(Nc1cccc(Cl)c1)c1ccc2c(c1)C1(CCS(=O)(=O)CC1)C(C1CC1)N2S(=O)(=O)c1ccc(F)cc1 (stereo not shown) [Example 24, N-(3-chlorophenyl)-2-cyclopropyl-1-[(4-fluorophenyl)sulfonyl]-1,2,2′,3′,5′,6′-hexahydrospiro[indole-3,4′-thiopyran]-5-carboxamide 1′,1′-dioxide] | 187 nM | 264 nM | 
CC(=O)N[C@H](Cc1ccc2ccccc2c1)C(=O)N[C@H](Cc1ccc(Cl)cc1)C(=O)N[C@H](Cc1cccnc1)C(=O)N[C@@H](CO)C(=O)N[C@@H](Cc1ccc(O)cc1)C(=O)N[C@H](CCCNC(N)=O)C(=O)N[C@@H](CC(C)C)C(=O)N[C@@H](CCCNC(=N)N)C(=O)N1CCC[C@H]1C(=O)N[C@H](C)C(N)=O [cetrorelix, reference compound] (Ac-[d2Nal][dPhe(4-Cl)][d3Pal]SY[dCit]LRP[dA]-NH2) |  |  | LH suppression (serum LH; 0.1 mg/kg i.p.): 91%
N#Cc1ccc(S(=O)(=O)N2c3ccc(C(=O)Nc4ccccc4F)cc3C3(CCS(=O)(=O)CC3)C2C2CC2)cc1 (stereo not shown) [Example 75, 1-[(4-cyanophenyl)sulfonyl]-2-cyclopropyl-N-(2-fluorophenyl)-1,2,2′,3′,5′,6′-hexahydrospiro[indole-3,4′-thiopyran]-5-carboxamide 1′,1′-dioxide] | 30 nM | 53 nM | 
O=C(NCc1ncccc1Cl)c1ccc2c(c1)C1(CCS(=O)(=O)CC1)C(C1CC1)N2S(=O)(=O)c1ccc(F)cc1 (single isomer, unassigned) [Example 14.1, N-[(3-Chloropyridin-2-yl)methyl]-2-cyclopropyl-1-[(4-fluorophenyl)sulfonyl]-1,2,2′,3′,5′,6′-hexahydrospiro[indole-3,4′-thiopyran]-5-carboxamide 1′,1′-dioxide] | 20 nM | 104 nM | LH suppression (serum LH; 1 mg/kg single per oral): 11%; LH suppression (serum LH; 10 mg/kg single per oral): 89%; LH suppression (serum LH; 30 mg/kg single per oral): 88%; in vivo activity (conclusion in words) (serum LH; per oral): orally active GnRH antagonist in vivo; concentration at 6 h ([1]; 1 mg/kg per oral): 40 nM; concentration at 6 h ([1]; 10 mg/kg per oral): 770 ± 200 nM; concentration at 6 h ([1]; 30 mg/kg per oral): 1840 ± 530 nM
O=C(NCc1ccccc1C(F)F)c1ccc2c(c1)C1(CCS(=O)(=O)CC1)C(C1CC1)N2S(=O)(=O)c1ccc(F)cc1 (single isomer, unassigned) [Example 68.1, 2-cyclopropyl-N-[2-(difluoromethyl)benzyl]-1-[(4-fluorophenyl)sulfonyl]-1,2,2′,3′,5′,6′-hexahydrospiro[indole-3,4′-thiopyran]-5-carboxamide 1′,1′-dioxide] | 9.5 nM | 4.2 nM | 
O=C(NCc1ccccc1Cl)c1ccc2c(c1)C1(CC[S+]([O-])CC1)C(C1CC1)N2S(=O)(=O)c1ccc(F)cc1 (single isomer, unassigned) [Example 13.1, N-(2-Chlorobenzyl)-2-cyclopropyl-1-[(4-fluorophenyl)sulfonyl]-1,2,2′,3′,5′,6′-hexahydrospiro[indole-3,4′-thiopyran]-5-carboxamide 1′-oxide] | 8.5 nM | 12 nM | 
O=C(NCc1ccccc1Cl)c1ccc2c(c1)C1(CCS(=O)(=O)CC1)C(C1CC1)N2S(=O)(=O)c1ccc(F)cc1 (single isomer, unassigned) [Example 18.1, N-(2-chlorobenzyl)-2-cyclopropyl-1-[(4-fluorophenyl)sulfonyl]-1,2,2′,3′,5′,6′-hexahydrospiro[indole-3,4′-thiopyran]-5-carboxamide 1′,1′-dioxide] | 11 nM | 26 nM | 
